Results reported in ChEMBL document CHEMBL1152158, “Trifluoromethylpyrimidine-based inhibitors of proline-rich tyrosine kinase 2 (PYK2): structure-activity relationships and strategies for the elimination of reactive metabolite formation” (Bioorg Med Chem Lett, 2008).

Columns and labels:
[1] = biological target: T1, Focal adhesion kinase 1 (Homo sapiens, UniProt Q05397); experiment: Inhibition of GST-tagged FAK assessed as inhibition of poly-Glu-Tyr phosphorylation by fluorescence polarization assay
[2] = biological target: T1, Focal adhesion kinase 1
[3] = in vitro; conditions: human, liver microsomes
Description: Metabolic stability in human liver microsomes assessed as hepatic extraction ratio

[4] = biological target: Protein-tyrosine kinase 2-beta (Homo sapiens, UniProt Q14289)
Description: Inhibition of GST-tagged pyk2 assessed as inhibition of poly-Glu-Tyr phosphorylation

[5] = Oral bioavailability in rat; assay type: ADME, organism-based; conditions: in vivo

T1 sequence (Q05397 whole entry): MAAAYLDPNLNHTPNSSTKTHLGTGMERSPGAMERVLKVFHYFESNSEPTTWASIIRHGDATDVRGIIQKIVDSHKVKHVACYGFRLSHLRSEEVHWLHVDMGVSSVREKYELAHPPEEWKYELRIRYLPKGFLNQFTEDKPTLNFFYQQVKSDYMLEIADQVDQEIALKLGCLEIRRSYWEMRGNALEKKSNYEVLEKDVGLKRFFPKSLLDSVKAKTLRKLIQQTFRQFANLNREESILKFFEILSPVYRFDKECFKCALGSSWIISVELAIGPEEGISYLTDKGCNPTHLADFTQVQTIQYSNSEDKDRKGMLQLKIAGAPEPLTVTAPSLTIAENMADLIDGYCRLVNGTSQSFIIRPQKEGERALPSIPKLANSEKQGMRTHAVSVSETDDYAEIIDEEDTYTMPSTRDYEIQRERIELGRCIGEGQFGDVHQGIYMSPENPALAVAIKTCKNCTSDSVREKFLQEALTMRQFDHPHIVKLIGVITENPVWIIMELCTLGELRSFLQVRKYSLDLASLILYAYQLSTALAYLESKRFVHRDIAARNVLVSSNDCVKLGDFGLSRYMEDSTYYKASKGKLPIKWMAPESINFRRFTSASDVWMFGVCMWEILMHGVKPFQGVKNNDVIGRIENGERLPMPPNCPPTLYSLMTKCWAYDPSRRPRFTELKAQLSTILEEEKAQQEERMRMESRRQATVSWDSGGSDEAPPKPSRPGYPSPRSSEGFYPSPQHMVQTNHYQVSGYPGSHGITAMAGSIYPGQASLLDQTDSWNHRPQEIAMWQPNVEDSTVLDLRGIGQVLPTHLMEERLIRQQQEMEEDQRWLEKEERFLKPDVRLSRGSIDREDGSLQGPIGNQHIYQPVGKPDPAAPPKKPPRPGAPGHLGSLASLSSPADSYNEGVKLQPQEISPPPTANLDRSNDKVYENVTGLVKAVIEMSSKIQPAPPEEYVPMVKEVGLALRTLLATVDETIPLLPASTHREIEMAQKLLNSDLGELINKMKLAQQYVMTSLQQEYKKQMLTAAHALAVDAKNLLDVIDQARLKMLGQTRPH
Protein-tyrosine kinase 2-beta, sequence (Q14289 whole entry): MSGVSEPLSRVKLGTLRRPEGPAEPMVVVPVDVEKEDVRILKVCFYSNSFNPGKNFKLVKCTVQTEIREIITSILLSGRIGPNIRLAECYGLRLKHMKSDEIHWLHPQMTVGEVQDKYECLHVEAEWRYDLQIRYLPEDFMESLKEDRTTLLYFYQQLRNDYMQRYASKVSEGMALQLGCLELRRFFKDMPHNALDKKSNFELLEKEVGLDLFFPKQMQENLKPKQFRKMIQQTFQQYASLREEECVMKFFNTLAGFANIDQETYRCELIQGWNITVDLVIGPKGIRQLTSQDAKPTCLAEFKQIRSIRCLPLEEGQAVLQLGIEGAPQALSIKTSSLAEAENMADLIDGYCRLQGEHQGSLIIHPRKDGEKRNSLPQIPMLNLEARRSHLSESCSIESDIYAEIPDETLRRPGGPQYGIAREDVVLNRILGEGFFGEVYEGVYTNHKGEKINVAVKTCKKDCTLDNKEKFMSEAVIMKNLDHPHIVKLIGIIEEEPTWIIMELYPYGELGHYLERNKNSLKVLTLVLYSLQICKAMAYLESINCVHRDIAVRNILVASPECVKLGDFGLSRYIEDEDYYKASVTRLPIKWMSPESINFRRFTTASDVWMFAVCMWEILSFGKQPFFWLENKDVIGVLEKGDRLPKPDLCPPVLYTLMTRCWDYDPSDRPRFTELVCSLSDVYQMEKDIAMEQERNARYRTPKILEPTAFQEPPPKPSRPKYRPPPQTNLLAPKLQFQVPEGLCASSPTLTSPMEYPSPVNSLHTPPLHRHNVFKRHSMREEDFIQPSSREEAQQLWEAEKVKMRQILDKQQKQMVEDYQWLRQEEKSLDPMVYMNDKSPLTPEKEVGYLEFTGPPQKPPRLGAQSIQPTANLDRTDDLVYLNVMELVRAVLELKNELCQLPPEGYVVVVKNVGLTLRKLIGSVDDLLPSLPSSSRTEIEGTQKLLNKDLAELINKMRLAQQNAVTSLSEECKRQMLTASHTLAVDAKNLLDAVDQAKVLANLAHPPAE

Structure (SMILES) | IC50 [1] [nM] | hepatic extraction ratio [3] | bioavailability [5] [%] | IC50 [2] [nM] | IC50 [4] [nM]
Cn1ccc2cc(Nc3ncc(C(F)(F)F)c(NCc4ccccn4)n3)ccc21 | – | – | < 5 | – | –
O=C1Cc2cc(Nc3ncc(C(F)(F)F)c(NCc4ccccc4)n3)ccc2N1 | – | < 0.26 | – | 34 | 120
FC(F)(F)c1cnc(Nc2ccc3[nH]ncc3c2)nc1NCc1ccccn1 | – | – | < 5 | – | –
O=C1Cc2cc(Nc3nccc(NCc4ccccn4)n3)ccc2N1 | – | < 0.26 | – | > 10000 | > 10000
Cc1cnc(Nc2ccc3c(c2)CC(=O)N3)nc1NCc1ccccn1 | – | < 0.3 | – | 2200 | > 3000
O=C1CCCc2cc(Nc3ncc(C(F)(F)F)c(NC4CCC4)n3)ccc2N1 | – | – | – | – | 33
CS(=O)(=O)c1cccc(CNc2nc(Nc3ccc4c(c3)CC(=O)N4)ncc2C(F)(F)F)c1 | – | 0.35 | – | 9 | > 1100
CS(=O)(=O)c1ccccc1CNc1nc(Nc2ccc3c(c2)CC(=O)N3)ncc1C(F)(F)F | – | 0.55 | – | 59 | 15
CN(c1ccccc1CNc1nc(Nc2ccc(S(C)(=O)=O)cc2)ncc1C(F)(F)F)S(C)(=O)=O | – | 0.93 | – | 0.94 | 35
O=C1Cc2cc(Nc3ncc(Cl)c(NCc4ccccn4)n3)ccc2N1 | – | < 0.28 | – | 77 | > 1000
CN(c1cccc(CNc2nc(Nc3ccc4c(c3)CC(=O)N4)ncc2C(F)(F)F)c1)S(C)(=O)=O | – | 0.59 | – | 1.9 | 190

Further lines, with some results ahead:

IC50 [1] [nM] | hepatic extraction ratio [3] | bioavailability [5] [%] | Structure (SMILES) | IC50 [2] [nM] | IC50 [4] [nM]
6900 | 0.48 | – | CN(C)[C@@H]1CCC[C@H]1Nc1nc(Nc2ccncc2)ncc1C(F)(F)F | 4100 | –
– | < 0.26 | – | CN(C)[C@@H]1CCC[C@H]1Nc1nc(Nc2ccc3c(c2)CS(=O)(=O)N3)ncc1C(F)(F)F | > 650 | 50
4000 | 0.66 | – | CN(C)C(=O)c1cccc(Nc2ncc(C(F)(F)F)c(N[C@@H]3CCC[C@H]3N(C)C)n2)c1 | 3900 | –
– | 0.66 | – | CCN(CC)C(=O)c1ccc(Nc2ncc(C(F)(F)F)c(N[C@@H]3CCC[C@H]3N(C)C)n2)cc1 | 3300 | –
– | 0.41 | – | CN(C)[C@@H]1CCC[C@H]1Nc1nc(Nc2ccn3ccnc3c2)ncc1C(F)(F)F | – | –
